What was measured:
Conditions in all cases: Neuro2a, 3 nM
[1] = biological target: T1, Triacylglycerol hydrolase DDHD2 (Mus musculus) (UniProt Q80Y98)
T1 sequence (whole entry): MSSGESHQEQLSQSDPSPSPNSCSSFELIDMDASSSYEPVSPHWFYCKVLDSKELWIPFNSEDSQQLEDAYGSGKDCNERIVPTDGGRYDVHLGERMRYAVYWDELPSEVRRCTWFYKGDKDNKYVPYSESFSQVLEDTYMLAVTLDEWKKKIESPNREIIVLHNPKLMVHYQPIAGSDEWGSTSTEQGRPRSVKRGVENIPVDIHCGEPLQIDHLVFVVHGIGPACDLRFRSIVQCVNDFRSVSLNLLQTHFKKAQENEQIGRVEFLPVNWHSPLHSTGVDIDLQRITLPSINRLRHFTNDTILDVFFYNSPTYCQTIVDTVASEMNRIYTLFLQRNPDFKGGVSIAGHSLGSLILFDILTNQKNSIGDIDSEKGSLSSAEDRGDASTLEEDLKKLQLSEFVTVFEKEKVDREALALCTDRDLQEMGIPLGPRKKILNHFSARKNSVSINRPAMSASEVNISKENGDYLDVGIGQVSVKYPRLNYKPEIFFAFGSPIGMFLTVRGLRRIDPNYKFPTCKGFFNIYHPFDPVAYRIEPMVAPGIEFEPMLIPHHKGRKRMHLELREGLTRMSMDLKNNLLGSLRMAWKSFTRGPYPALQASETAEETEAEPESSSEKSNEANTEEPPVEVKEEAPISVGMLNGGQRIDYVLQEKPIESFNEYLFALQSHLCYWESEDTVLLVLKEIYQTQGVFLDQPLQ
Description: Inhibition of Ddhd2 in mouse Neuro2a cells at 3 nM after 4 hrs by ABPP-SILAC assay

[2] = biological target: Dipeptidyl peptidase 2 (Mus musculus) (UniProt Q9ET22)
Description: Inhibition of Dpp7 in mouse Neuro2a cells at 3 nM after 4 hrs by ABPP-SILAC assay

[3] = biological target: T2, Calcium-independent phospholipase A2-gamma (Mus musculus) (UniProt Q8K1N1)
T2 sequence (whole entry): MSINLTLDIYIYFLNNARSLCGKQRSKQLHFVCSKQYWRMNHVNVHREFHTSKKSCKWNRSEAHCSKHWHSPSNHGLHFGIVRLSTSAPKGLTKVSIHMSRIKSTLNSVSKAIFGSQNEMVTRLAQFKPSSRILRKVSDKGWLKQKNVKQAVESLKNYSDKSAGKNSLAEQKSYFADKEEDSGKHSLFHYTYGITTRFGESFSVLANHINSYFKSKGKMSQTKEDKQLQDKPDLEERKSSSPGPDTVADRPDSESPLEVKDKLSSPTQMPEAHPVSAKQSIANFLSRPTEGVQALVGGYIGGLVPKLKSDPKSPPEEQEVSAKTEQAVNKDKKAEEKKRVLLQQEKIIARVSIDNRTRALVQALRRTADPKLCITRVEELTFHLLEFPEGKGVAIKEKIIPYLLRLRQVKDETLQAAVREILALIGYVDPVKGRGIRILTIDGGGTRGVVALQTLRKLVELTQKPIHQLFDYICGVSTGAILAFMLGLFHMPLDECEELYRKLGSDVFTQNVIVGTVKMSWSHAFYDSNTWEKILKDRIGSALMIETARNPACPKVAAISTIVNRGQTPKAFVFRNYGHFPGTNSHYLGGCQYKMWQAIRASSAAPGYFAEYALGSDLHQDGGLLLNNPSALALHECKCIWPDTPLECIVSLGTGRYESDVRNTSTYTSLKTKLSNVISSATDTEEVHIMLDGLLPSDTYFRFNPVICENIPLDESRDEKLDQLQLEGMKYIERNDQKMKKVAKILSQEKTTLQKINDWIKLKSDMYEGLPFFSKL
Description: Inhibition of Pnpla8 in mouse Neuro2a cells at 3 nM after 4 hrs by ABPP-SILAC assay

[4] = biological target: T3, Serine hydrolase-like protein (Mus musculus) (UniProt Q9EPB5)
T3 sequence (whole entry): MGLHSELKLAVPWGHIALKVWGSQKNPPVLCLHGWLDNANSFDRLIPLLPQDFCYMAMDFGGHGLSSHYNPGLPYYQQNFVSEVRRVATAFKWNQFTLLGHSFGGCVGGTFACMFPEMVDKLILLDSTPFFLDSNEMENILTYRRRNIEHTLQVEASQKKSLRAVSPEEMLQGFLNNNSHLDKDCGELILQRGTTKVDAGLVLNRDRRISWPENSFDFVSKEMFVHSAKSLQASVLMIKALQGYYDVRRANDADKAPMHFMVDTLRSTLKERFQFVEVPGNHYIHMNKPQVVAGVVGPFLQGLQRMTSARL
Description: Inhibition of Serhl in mouse Neuro2a cells at 3 nM after 4 hrs by ABPP-SILAC assay

[5] = biological target: Fatty acid synthase (Mus musculus) (UniProt P19096)
Description: Inhibition of Fasn in mouse Neuro2a cells at 3 nM after 4 hrs by ABPP-SILAC assay

[6] = biological target: Acyl-protein thioesterase 1 (Mus musculus) (UniProt P97823)
Description: Inhibition of Lypla1 in mouse Neuro2a cells at 3 nM after 4 hrs by ABPP-SILAC assay

[7] = biological target: T4, S-formylglutathione hydrolase (Mus musculus) (UniProt Q9R0P3)
T4 sequence (whole entry): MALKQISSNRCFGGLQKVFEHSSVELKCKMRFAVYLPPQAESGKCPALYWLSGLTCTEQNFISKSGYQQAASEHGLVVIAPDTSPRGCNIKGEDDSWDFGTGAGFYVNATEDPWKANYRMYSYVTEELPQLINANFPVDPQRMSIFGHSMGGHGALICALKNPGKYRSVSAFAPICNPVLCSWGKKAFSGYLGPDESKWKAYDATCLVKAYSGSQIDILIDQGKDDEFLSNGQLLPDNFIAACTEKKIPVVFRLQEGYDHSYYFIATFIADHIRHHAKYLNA
Description: Inhibition of Esd in mouse Neuro2a cells at 3 nM after 4 hrs by ABPP-SILAC assay

[8] = biological target: T5, Glutamyl-tRNA(Gln) amidotransferase subunit A, mitochondrial (Mus musculus) (UniProt Q9CZN8)
T5 sequence (whole entry): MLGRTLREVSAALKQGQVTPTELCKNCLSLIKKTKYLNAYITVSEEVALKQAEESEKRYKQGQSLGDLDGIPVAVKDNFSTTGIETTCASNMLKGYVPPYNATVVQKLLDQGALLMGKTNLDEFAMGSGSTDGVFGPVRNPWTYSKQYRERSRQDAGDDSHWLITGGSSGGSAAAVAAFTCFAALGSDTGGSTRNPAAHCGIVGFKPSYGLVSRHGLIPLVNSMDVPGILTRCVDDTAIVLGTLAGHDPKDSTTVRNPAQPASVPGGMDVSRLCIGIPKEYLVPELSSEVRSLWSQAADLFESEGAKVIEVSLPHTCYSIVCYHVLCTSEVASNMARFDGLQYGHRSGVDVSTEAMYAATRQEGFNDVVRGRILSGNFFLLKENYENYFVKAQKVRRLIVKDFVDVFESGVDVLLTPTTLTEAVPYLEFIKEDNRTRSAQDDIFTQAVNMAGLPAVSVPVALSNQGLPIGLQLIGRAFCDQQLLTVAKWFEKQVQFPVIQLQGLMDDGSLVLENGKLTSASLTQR
Description: Inhibition of Qrsl1 in mouse Neuro2a cells at 3 nM after 4 hrs by ABPP-SILAC assay

Measured: inhibition

Sequence of Fatty acid synthase (Mus musculus) (P19096 whole entry): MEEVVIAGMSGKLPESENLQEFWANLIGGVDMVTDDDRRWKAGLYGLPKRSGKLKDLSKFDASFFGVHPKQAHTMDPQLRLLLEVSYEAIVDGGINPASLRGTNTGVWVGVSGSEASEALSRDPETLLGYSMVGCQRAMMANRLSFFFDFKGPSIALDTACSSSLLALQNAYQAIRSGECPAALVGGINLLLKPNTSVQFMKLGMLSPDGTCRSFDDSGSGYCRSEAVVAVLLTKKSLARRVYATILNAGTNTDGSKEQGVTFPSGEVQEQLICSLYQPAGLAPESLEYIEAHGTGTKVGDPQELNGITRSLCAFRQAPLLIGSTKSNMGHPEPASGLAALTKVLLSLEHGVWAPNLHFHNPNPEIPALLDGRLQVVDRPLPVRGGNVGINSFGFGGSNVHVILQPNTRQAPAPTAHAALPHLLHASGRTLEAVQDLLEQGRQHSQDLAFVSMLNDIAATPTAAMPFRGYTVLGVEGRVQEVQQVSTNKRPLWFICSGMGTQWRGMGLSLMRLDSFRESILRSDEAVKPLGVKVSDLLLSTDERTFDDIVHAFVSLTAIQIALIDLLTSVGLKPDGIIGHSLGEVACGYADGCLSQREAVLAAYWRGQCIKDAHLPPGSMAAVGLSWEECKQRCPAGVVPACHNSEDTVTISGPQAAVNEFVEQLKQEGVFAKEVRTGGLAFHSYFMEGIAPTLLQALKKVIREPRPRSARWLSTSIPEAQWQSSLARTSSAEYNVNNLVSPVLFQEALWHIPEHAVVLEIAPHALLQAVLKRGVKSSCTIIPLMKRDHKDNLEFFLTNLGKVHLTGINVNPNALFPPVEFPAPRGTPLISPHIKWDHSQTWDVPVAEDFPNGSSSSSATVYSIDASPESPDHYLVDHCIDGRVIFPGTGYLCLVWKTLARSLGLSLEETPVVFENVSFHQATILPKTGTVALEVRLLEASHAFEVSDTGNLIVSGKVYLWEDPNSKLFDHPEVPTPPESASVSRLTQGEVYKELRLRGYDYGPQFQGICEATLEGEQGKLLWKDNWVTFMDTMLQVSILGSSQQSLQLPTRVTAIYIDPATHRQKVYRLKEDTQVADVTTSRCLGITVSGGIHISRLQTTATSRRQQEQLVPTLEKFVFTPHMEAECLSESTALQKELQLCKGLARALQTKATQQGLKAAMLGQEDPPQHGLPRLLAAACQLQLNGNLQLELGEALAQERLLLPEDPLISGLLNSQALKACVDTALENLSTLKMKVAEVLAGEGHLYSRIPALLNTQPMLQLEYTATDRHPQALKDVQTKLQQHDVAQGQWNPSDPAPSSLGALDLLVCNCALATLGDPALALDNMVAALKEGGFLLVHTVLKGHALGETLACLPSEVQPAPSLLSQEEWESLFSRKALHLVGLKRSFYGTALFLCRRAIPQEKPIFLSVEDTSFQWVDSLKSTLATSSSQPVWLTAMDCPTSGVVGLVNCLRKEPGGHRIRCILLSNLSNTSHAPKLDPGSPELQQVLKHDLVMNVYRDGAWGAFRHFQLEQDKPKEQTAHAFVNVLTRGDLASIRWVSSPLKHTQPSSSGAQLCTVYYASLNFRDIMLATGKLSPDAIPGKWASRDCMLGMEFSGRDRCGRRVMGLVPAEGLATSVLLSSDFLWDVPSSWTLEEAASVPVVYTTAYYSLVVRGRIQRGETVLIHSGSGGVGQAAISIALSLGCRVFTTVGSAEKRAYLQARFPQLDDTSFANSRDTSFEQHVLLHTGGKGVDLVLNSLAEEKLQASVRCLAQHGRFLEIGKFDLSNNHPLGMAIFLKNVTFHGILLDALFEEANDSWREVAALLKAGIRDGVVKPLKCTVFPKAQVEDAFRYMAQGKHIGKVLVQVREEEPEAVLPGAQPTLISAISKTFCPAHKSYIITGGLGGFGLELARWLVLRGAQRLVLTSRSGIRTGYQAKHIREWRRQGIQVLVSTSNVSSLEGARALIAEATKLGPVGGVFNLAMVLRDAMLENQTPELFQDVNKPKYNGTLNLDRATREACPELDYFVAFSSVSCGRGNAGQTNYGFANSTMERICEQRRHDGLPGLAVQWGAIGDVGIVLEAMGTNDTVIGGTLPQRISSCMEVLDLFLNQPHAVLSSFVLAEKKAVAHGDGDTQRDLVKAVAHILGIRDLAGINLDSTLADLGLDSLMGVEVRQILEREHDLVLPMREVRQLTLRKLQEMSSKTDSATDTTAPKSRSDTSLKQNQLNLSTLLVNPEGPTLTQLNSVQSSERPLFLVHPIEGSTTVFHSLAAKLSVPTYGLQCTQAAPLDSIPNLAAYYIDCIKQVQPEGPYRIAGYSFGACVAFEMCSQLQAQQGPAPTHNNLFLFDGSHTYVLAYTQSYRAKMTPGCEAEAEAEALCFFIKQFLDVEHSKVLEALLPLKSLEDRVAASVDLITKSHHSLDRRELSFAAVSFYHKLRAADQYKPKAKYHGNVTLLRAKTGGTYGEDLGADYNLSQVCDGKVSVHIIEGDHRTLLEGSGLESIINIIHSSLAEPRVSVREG
Sequence of Acyl-protein thioesterase 1 (Mus musculus) (P97823 whole entry): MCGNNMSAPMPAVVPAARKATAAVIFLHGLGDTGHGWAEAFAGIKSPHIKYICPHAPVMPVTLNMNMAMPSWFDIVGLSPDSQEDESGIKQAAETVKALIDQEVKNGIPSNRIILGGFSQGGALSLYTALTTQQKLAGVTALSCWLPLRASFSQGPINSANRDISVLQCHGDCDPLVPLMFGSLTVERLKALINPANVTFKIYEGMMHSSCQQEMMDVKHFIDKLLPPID
Sequence of Dipeptidyl peptidase 2 (Mus musculus) (Q9ET22 whole entry): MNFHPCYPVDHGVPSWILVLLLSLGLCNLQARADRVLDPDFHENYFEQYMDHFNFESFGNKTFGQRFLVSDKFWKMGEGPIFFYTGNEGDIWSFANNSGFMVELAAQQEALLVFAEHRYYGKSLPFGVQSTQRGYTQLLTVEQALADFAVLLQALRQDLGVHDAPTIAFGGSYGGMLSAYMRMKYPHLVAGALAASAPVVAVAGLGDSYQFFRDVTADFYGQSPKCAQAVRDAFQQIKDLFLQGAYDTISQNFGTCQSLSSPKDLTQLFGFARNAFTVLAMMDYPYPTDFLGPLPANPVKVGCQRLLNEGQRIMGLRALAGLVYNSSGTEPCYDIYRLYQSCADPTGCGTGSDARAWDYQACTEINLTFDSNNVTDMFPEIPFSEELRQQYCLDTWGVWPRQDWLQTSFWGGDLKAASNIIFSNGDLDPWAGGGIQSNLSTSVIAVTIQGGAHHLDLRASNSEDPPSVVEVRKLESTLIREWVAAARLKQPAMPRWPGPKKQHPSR

O=C(O)c1cccc(-c2ccc(-c3cn(C(=O)N4CCCCC4Cc4ccccc4)nn3)cc2)c1 (racemic)
< 50%: all assays above

O=C(N1CCCCC1c1ccccc1)n1cc(-c2ccc(-c3cccc(CO)c3)cc2)nn1 (racemic)
< 50%: all assays above

O=C(c1cccc(-c2ccc(-c3cn(C(=O)N4CCCCC4c4ccccc4)nn3)cc2)c1)N1CCCCC1 (racemic)
< 50%: all assays above

Source: ChEMBL document CHEMBL3259629, “Discovery and optimization of piperidyl-1,2,3-triazole ureas as potent, selective, and in vivo-active inhibitors of α/β-hydrolase domain containing 6 (ABHD6)” (J Med Chem, 2013)
